One molecule from publication PMC4001449, “Thienoquinolines as Novel Disruptors of the PKCε/RACK2 Protein–Protein Interaction” (Journal of Medicinal Chemistry, 2014) can be followed below.

Assay [1] concerns the target T1, PKCβII/RACK1 interaction (Homo sapiens, UniProt P63244).
T1 construct: 6-His
The assay is described as follows: PKCβII/RACK1 in vitro binding assay. The settings on record: Figure 2B. The protocol:
This assay was similar to the PKCε/RACK2 binding assay described above. 6-his-tagged RACK1 was cloned into a pET-30a(+) vector (Novagen, Merck KGaA, Darmstadt, Germany) and purified with Ni-NTA agarose (Qiagen, Hilden, Germany). Final elution was performed with 500 nM imidazole in elution buffer (20 mM Tris-HCl/300 mM NaCl, 20% glycerol, pH 7.5). The integrity of purified recombinant protein was analyzed by Coomassie Blue staining and Western blotting. Then 200 ng RACK1 was coated onto 96-well EIA/RIA high binding plates (Costar, Corning, New York, NY) at 4 °C on a shaker with gentle agitation overnight. Compound 8 was added at room temperature for 30 min. Then 500 ng of recombinant GST-tagged PKCβII (ProQinase) was activated with CaCl2, phosphatidylserine, and TPA for 10 min. The RACK1-coated plates with and without 8 were incubated for 1 h with activated PKCβII. The interaction was determined with a primary rabbit anti-GST antibody (Santa Cruz) and corresponding HRP-conjugated goat anti-rabbit HRP conjugated secondary antibody (Santa Cruz) as described above for the PKCε/RACK2 interaction.

In assay [2] the target is T2, PKCε (Homo sapiens, UniProt Q02156).
T2 sequence (Q02156 1-737): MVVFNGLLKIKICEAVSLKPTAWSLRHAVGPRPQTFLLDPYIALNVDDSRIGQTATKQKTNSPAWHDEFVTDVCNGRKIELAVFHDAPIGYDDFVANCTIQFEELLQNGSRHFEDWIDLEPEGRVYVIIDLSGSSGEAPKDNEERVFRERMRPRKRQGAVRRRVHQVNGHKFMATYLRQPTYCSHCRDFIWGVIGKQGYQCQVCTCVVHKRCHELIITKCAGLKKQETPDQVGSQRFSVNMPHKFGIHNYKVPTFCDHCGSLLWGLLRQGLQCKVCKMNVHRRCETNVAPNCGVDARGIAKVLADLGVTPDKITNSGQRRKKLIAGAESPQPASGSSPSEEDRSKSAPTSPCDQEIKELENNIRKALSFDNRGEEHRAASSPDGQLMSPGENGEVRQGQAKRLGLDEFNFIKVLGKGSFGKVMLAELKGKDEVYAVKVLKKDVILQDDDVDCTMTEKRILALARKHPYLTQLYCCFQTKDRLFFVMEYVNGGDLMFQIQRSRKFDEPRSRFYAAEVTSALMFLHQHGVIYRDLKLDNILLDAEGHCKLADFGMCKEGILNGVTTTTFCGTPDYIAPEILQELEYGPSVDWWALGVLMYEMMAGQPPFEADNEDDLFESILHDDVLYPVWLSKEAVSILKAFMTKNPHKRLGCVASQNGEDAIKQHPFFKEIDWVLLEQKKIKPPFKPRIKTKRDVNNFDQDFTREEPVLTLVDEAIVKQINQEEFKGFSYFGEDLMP
The assay is described as follows: PKC isozyme assay, PKCε. The class given is biochemical. As to conditions: 50 µM, Supp. Figure 2. The method, then:
Supporting Information Figure 2. Effect of compound 8 on PKC isozymes. 50 µM of compound
8 were used in the PKC assays as described in Gruber et al., J. Biochem. 2011, 149, 331-336. *p
= 0.015, **p = 0.0028, ***p = 0.0007. The control is standardized (100%). Therefore, the
standard deviation for the control is 0.
(1 picture or pasted object on this page, not shown here)

Assay [3] relates to VEGF-induced angiogenesis in chicken egg. The assay is described as follows: Chicken egg angiogenesis assay. As to conditions: Figure 8. The class given is in vivo. The protocol: Eggs from hen were incubated at 37 °C for 3 days, opened, and incubated for further 7 days. After further incubation for 5 days, angiogenesis was observed by microscope.
Assay [4] relates to MARCKS phosphorylation. The assay can be described thus: MARCKS phosphorylation in HeLa cells (Western blot). The class given is cell-based. The settings on record: 50 μM for 30 min, 100 nM TPA last 10 min. The protocol: Figure 6 Compound 8 inhibits MARCKS phosphorylation, cell proliferation, and invasion following treatment with 8. (A) HeLa cells were starved for 16 h in medium without fetal calf serum. Subsequently, they were treated with 50 μM solution of compound 8 for 30 min and 100 nM TPA for the last 10 min. An amount of 150 μg of protein from lysed cells was loaded onto SDS 8–16% gels. Tubulin was used as loading control. Below a representative blot, a bar graph corresponding to quantitative scans of three independent experiments (±SD) is shown. (B) Cell proliferation following treatment of HeLa and PC-3 cells with 8. The mean values (±SD) of three independent experiments, in which three samples were taken within each experiment, are shown. (C) Invasion of cells through a membrane. Cell invasion was determined as described in Experimental Section. In HeLa cells with a doxycycline-inducible PKCε the expression of PKCε was induced with doxycycline (control + Dox). The mean of three experiments (±SD) is shown: (∗) p = 0.03. The data are normalized to the control (100%). Therefore, the standard deviation for the control is 0.
For PKCε translocation PC-3 cells were starved for 16 h, treated with 8 for 30 min, stimulated with 50 nM TPA for 5 min, lysed, and fractionated with a CNMCS/CNM compartmental protein extraction kit (BioChain Institute, Newark, CA). […]

Each structure is given as a SMILES string.

On to `CC(=O)c1cccc(NC(=O)c2sc3nc4cc5c(cc4cc3c2N)OCCO5)c1` [Compound 8, N-(3-acetylphenyl)-9-amino-2,3-dihydro-1,4-dioxino[2,3-g]thieno[2,3-b]quinoline-8-carboxamide], for which the “Prevention of the PKCβII/RACK1 interaction” value in assay [1] is reported as “does not prevent”. The “Inhibition of PKCε in vitro” value in assay [2] was “does not inhibit”. Besides, in assay [3], the “Induction of angiogenesis by vascular endothelial growth factor” value is given as “inhibited”. Besides, the “Phosphorylation of MARCKS” value in assay [4] is recorded as “inhibited”.
